Laboratory results taken from US11155571B2, “Salt of pyranose-substituted heterocyclic compound, preparation method therefor and use thereof” (Yabao Pharmaceutical Group Co., Ltd., priority 2018, dated 2021).

Experiment: Solubility in water
Assay type: physicochemical

solubility: < 2300 µg/mL
SMILES: Cc1cccc2c1c(Cc1ccc(OCCCN3CCCC4(CCN(C(=O)CNC(=O)NCC(C)C)CC4)C3)cc1)cn2C1O[C@H](CO)[C@@H](O)[C@H](O)[C@H]1O (stereo partly shown) [compound represented by formula (II)]
